Test results taken from patent publication US20140221498A1, “AMINO DIOL DERIVATIVES AS SPHINGOSINE 1-PHOSPHATE (S1P) RECEPTOR MODULATORS” (ALLERGAN, INC., priority 2013, published 2014).

Target: T1, human S1P1 receptor (Homo sapiens, UniProt P21453)
T1 construct: expressed in transfected cells; membranes used
Assay: GTP γ35S binding assay for S1P1 activity
Type: biochemical
Details: membranes of cells stably expressing the S1P1 receptor, test compounds 0.08 to 5,000 nM, 30 min at 25° C.
Procedure: Compounds were synthesized and tested for S1P1 activity using the GTP γ^35S binding assay. These compounds may be assessed for their ability to activate or block activation of the human S1P1 receptor in cells stably expressing the S1P1 receptor.
GTP γ^35S binding was measured in the medium containing (mM) HEPES 25, pH 7.4, MgCl2 10, NaCl 100, dithitothreitol 0.5, digitonin 0.003%, 0.2 nM GTP γ^35S, and 5 μg membrane protein in a volume of 150 μl. Test compounds were included in the concentration range from 0.08 to 5,000 nM unless indicated otherwise. Membranes were incubated with 100 μM 5′-adenylylimmidodiphosphate for 30 min, and subsequently with 10 μM GDP for 10 min on ice. Drug solutions and membrane were mixed, and then reactions were initiated by adding GTP γ^35S and continued for 30 min at 25° C. Reaction mixtures were filtered over Whatman GF/B filters under vacuum, and washed three times with 3 mL of ice-cold buffer (HEPES 25, pH7.4, MgCl2 10 and NaCl 100). Filters were dried and mixed with scintillant, and counted for ^35S activity using a β-counter. Agonist-induced GTP γ^35S binding was obtained by subtracting that in the absence of agonist. Binding data were analyzed using a non-linear regression method. In case of antagonist assay, the reaction mixture contained 10 nM S1P in the presence of test antagonist at concentrations ranging from 0.08 to 5000 nM.

T1 sequence (P21453 whole entry): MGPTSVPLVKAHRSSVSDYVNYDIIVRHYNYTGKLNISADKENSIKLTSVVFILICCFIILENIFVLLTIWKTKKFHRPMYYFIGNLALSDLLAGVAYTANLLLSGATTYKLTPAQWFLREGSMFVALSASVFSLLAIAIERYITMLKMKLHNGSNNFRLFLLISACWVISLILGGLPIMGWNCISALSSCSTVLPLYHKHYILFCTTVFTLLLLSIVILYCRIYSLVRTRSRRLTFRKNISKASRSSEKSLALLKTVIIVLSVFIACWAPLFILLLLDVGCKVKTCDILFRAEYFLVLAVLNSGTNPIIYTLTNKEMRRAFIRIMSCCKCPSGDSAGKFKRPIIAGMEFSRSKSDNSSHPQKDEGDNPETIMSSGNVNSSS

EC50 | Structure (SMILES)
42 nM | Cc1ccc(CC(CCCOc2ccc(CCC(N)(CO)CO)cc2)c2cccc(F)c2)cc1C (stereo not drawn) [Compound 2, 2-amino-2-[2-(4-{[5-(3,4-dimethylphenyl)-4-(3-fluorophenyl)pentyl]oxy}phenyl)ethyl]propane-1,3-diol]
15.1 nM | Cc1ccc(CC(CCCOc2ccc(CCC(N)(CO)CO)cc2)c2cc(F)cc(F)c2)cc1C (stereo not drawn) [Compound 1, 2-amino-2-[2-(4-{[4-(3,5-difluorophenyl)-5-(3,4-dimethylphenyl)pentyl]oxy}phenyl)ethyl]propane-1,3-diol]
92.4 nM | Cc1ccc(CC(CCCOc2ccc(CCC(N)(CO)CO)cc2)c2cccc(Cl)c2)cc1C (stereo not drawn) [Compound 3, 2-amino-2-[2-(4-{[4-(3-chlorophenyl)-5-(3,4-dimethylphenyl)pentyl]oxy}phenyl)ethyl]propane-1,3-diol]
